Experimental findings from ChEMBL document CHEMBL6182937, “Design, Synthesis, and Anti-ischemic Stroke Activity Evaluation of Novel GSNOR Inhibitors” (J Med Chem, 2025) are described below.

Activity calls are given as the source filed them. No cut-off for these calls is given here.

The species named for assay [1] is Homo sapiens. Kind of assay: Inhibition of GSNOR (unknown origin) at 1 uM in presence of NADH incubated for 10 mins by microplate reader analysis relative to control.
The nature of assay [2]: Inhibition of GSNOR (unknown origin) in presence of NADH incubated for 10 mins by microplate reader analysis. Details: species or system Homo sapiens.
Assay [3] deals with Rattus norvegicus. Kind of assay: Neuroprotective activity against tMCAO- induced brain injury in Sprague-Dawley rat model assessed as reduction in infarct volume at 5 mg/kg, iv measured up to 24 hrs by TTC staining based analysis (reference value: 36.35 +/- 4.05%). The assay is classed as functional. Details: scale not given: the % may be the effect or the level left.
A further assay has as its system SH-SY5Y. Kind of assay: Neuroprotective activity against OGD/R-induced human […] cell injury model assessed as increase in cell viability at 10 uM measured for 24 hrs by CCK-8 assay. It is filed as functional, cell-based. In general terms: Tetrazolium dyes change colour on reduction, which living cells bring about.
Assay [4] concerns Rattus norvegicus. As to the kind of experiment: Neuroprotective activity against tMCAO- induced brain injury in Sprague-Dawley rat model assessed as reduction in infarct volume at 10 mg/kg, iv measured up to 24 hrs by TTC staining based analysis (reference value: 36.35 +/- 4.05%). It is filed as functional. Set-up: scale not given: the % may be the effect or the level left.
Assay [5] is described as follows: Inhibition of GSNOR (unknown origin). Details: species or system Homo sapiens.
For assay [6], the species on record is Homo sapiens. Kind of assay: Inhibition of GSNOR (unknown origin) at 10 uM relative to control.

Consider `NC(=O)c1cccc(Cn2c(-c3ccc(-n4ccnc4)cc3)cc3ccc(C(=O)O)cc32)c1`, for which the inhibition in the assay filed under Homo sapiens [1] was 3.84%.
For `Cc1cc(C(N)=O)ccc1-n1c(-c2ccc(-c3ccc(=O)[nH]c3)cc2)cc2ccc(C(=O)O)cc21`, the inhibition in the assay filed under Homo sapiens [1] is 5.7%.
Still for that read-out and setting: under `CN(C)S(=O)(=O)c1ccc(Cn2c(-c3ccc(-n4ccnc4)cc3)cc3ccc(C(=O)O)cc32)cc1` stands 94.3%.
`NC(=O)c1ccc(-n2c(-c3ccc(-n4ccnc4)cc3)cc3ccc(C(=O)O)cc32)cc1`: in assay [2], the IC50 was found to be 312 nM. Moreover, the inhibition in the assay filed under Homo sapiens [1] stood at 81.7%.
Turning to `Cc1cc(C(N)=O)ccc1-n1c(CCC(=O)O)ccc1-c1ccc(-n2ccnc2)cc1` [N6022], the Activity in the assay on Rattus norvegicus [3] and in the assay with Rattus norvegicus [4] was 25.26% throughout. For the same compound, the IC50 in assay [2] stood at 84.7 nM. Moreover, the outcome with SH-SY5Y was Active. In the assay filed under Homo sapiens [1], the inhibition stood at 90.3%.
As to `NC(=O)c1ccc(-n2c(-c3ccc(-n4ccnc4)cc3)cc3ccc(C(=O)O)cc32)cc1Br`, the inhibition in the assay filed under Homo sapiens [1] was found to be 76.6%.
With `CC(C)Oc1cc(-n2c(-c3ccc(-n4ccnc4)cc3)cc3ccc(C(=O)O)cc32)ccc1C(N)=O`, the IC50 in assay [2] was 58.3 nM. For the same compound, the inhibition in the assay filed under Homo sapiens [1] was 92.3%.
The like results for `N#Cc1cccc(Cn2c(-c3ccc(-n4ccnc4)cc3)cc3ccc(C(=O)O)cc32)c1` were, in that order, 102 nM and 84.4%.
As for `N#Cc1ccc(Cn2c(-c3ccc(-n4ccnc4)cc3)cc3ccc(C(=O)O)cc32)cc1`, the IC50 in assay [2] turned out to be 54.6 nM. The inhibition in the assay filed under Homo sapiens [1] is 35.1%.
For `O=C(O)c1ccc2cc(-c3ccc(-n4ccnc4)cc3)n(Cc3ccc(Br)cc3)c2c1` the same measures were 84.4 nM and 81.6%.
Take `Cc1cc(C(N)=O)ccc1-n1c(-c2ccc(-c3ccncc3)cc2)cc2ccc(C(=O)O)cc21`: in the assay filed under Homo sapiens [1], the inhibition was 12.5%.
Still for that read-out and setting: under `O=C(O)c1ccc2cc(-c3ccc(-n4ccnc4)cc3)n(Cc3ccc(N4CCCC4=O)cc3)c2c1` stands 85.5%; under `Cc1cc(C(N)=O)ccc1-n1c(-c2ccc(-c3cn(C)nc3C(F)(F)F)cc2)cc2ccc(C(=O)O)cc21`, 0.93%.
Turning to `NC(=O)c1ccc(-n2c(-c3ccc(-n4ccnc4)cc3)cc3ccc(C(=O)O)cc32)cc1O`, the IC50 in assay [2] is 60.3 nM. Further, the inhibition in the assay filed under Homo sapiens [1] amounted to 97%.
On to `Cc1cc(C(N)=O)ccc1-n1c(-c2ccc(-n3ccnc3)cc2)cc2ccc(C(=O)O)cc21`, for which, in assay [2], the IC50 was found to be 192 nM. The inhibition in the assay listed under Homo sapiens [1] worked out at 81.2%.
Regarding `NC(=O)c1ccc(Cn2c(-c3ccc(-n4ccnc4)cc3)cc3ccc(C(=O)O)cc32)cc1`, the IC50 in assay [2] turned out to be 42.2 nM. In the assay listed under Homo sapiens [1], the inhibition was found to be 22.4%.
For `NC(=O)c1ccc(-n2c(-c3ccc(-n4ccnc4)cc3)cc3ccc(C(=O)O)cc32)cc1Cl` the same measures were 51.1 nM and 93.3%.
Compound `O=C(O)c1ccc2cc(-c3ccc(-n4ccnc4)cc3)n(Cc3ccc(F)cc3)c2c1` returned an IC50 in assay [5] of 649 nM.
As to `Cc1cc(C(N)=O)ccc1-n1c(-c2ccc(O)cc2)cc2ccc(C(=O)O)cc21`, the inhibition in the assay filed under Homo sapiens [1] worked out at 33.7%.
Still for that read-out and setting: under `N#Cc1ccc(-n2c(-c3ccc(-n4ccnc4)cc3)cc3ccc(C(=O)O)cc32)cc1` stands 22.4%; under `Cc1cc(C(N)=O)ccc1-n1c(-c2ccc(N3CCOCC3)cc2)cc2ccc(C(=O)O)cc21`, -0.76%.
With `NC(=O)c1ccc(-n2c(-c3ccc(-n4ccnc4)cc3)cc3ccc(C(=O)O)cc32)cn1`, the inhibition in the assay filed under Homo sapiens [1] turned out to be 60.7%.
In the case of `Cc1cc(-n2c(-c3ccc(-n4ccnc4)cc3)cc3ccc(C(=O)O)cc32)ccc1C(N)=O`, the inhibition in the assay listed under Homo sapiens [1] was 72.2%.
The same measure, in the same setting: the value for `N#Cc1ccc(Cn2c(-c3ccc(-n4ccnc4)cc3)cc3ccc(C(=O)O)cc32)cc1F` was 88.9%.
As to `O=C(O)c1ccc2cc(-c3ccc(-n4ccnc4)cc3)n(Cc3ccc(Cl)cc3)c2c1`, the IC50 in assay [2] was 171 nM. In addition, the inhibition in the assay listed under Homo sapiens [1] is 28.1%.
As for `O=C(O)c1ccc2cc(-c3ccccc3)n(Cc3ccc(F)cc3)c2c1`, in the assay listed under Homo sapiens [6], the inhibition came to 32.4%.
`NC(=O)c1ccc(-n2c(-c3ccc(-n4ccnc4)cc3)cc3ccc(C(=O)O)cc32)cc1C(F)(F)F`: the inhibition in the assay filed under Homo sapiens [1] worked out at 50.9%.
In the case of `Cc1cc(C(N)=O)ccc1-n1c(-c2ccc(N3CCN(C)CC3)cc2)cc2ccc(C(=O)O)cc21`, the inhibition in the assay listed under Homo sapiens [1] is -0.36%.
For `Cc1cc(C(N)=O)ccc1-n1c(-c2ccc(NS(N)(=O)=O)cc2)cc2ccc(C(=O)O)cc21`, the inhibition in the assay listed under Homo sapiens [1] came out at 14.8%.
As for `O=C(O)c1ccc2cc(-c3ccc(-n4ccnc4)cc3)n(Cc3ccc(SC(F)(F)F)cc3)c2c1`, the concentration for half-maximal inhibition (IC50) in assay [2] came out at 71.1 nM. Further, the inhibition in the assay listed under Homo sapiens [1] worked out at 89.7%.
With `Cc1cc(C(N)=O)ccc1-n1c(-c2ccc(-c3cn(C)nc3C)cc2)cc2ccc(C(=O)O)cc21`, the inhibition in the assay filed under Homo sapiens [1] was 2.44%.
Consider `Cc1cc(C(N)=O)ccc1-n1c(-c2ccc(-c3cccnc3)cc2)cc2ccc(C(=O)O)cc21`, for which the inhibition in the assay filed under Homo sapiens [1] is 22.2%.
As to `N[C@@H](CCC(=O)N[C@@H](CSN=O)C(=O)NCC(=O)O)C(=O)O` [S-NITROSOGLUTATHIONE], in the assay on Rattus norvegicus [3], the Activity is on record as 25.26%. In addition, the result in the assay with SH-SY5Y was Active.

The inhibition is the relative decrease from the control value, in per cent. By IC50 is commonly meant the concentration needed to halve the response being measured.
